Experimental data reported in article PMC4559766 (Scientific Reports, 2015).
Like-named read-outs stand apart in the source and are kept apart here. Blank lines part the entries; values can stand above or below the molecule they belong to. Peptide text beside a SMILES is read from it.

Experiments:
[1] = Blood biochemical indexes of liver and kidney function in tumor-bearing nude mice; conditions: serum at end of 4 weeks of administration, n = 6
Method: (§1) The blood was collected and centrifuged at the end of administration for 4 weeks. The serum was placed into eppendorf (EP) tube and immediately sent to the First Affiliated Hospital of Jinan University where several tests closely related to liver/kidney function were performed, and the blood biochemical indexes AST, ALT, AST/ALT, ALB, GLB, ALB/GLB, DBILI, IBILI, TBILI, BUN and CREA were obtained.

Du145 transplanted tumor [2] = test: Microvessel density of removed tumors (anti-CD31 immunohistochemistry, Weidner method); format: in vivo, BALB/c-nu/nu nude mice; conditions: tumors removed after 4 weeks of administration, anti-CD31, n = 6
Method: Four weeks after administration, the mice were executed, and the tumors of different groups were removed and fixed with 10% neutral formalin or 2.5% glutaraldehyde. The fixed tumor tissue slides were subjected to Hematoxylin-eosin (HE) staining, immunohistochemistry in which anti-CD31 antibody and biotin-labeled IgG were respectively used as the first and second antibody, and TEM analysis. The microvessel densitied (MVD) in different tumor tissues was calculated using the Weidner method.

Du145 transplanted tumor [3] = test: Subcutaneous Du145 transplanted tumor in nude mice; format: in vivo, BALB/c-nu/nu nude mice; conditions: tail vein once a day for 4 weeks
Method: Thirty male 4-week-old BALB/c-nu/nu nude mice (17–19 g), were divided into five groups. CK group (blank control) was the mice which were not inoculated Du145 cells, and the remaining four groups received inoculation of Du145 cells. 0.2 ml of Du145 cells suspension with the concentration of 1.5 × 10^7 cells/ml was injected subcutaneously into the right side of back of nude mice. […] The weights and volumes of tumors in different groups were measured once every four days, and tumor growth curves for each group were plotted.

in vivo = conditions: BALB/c, mouse, iv, 5 mg/kg
Method: (§2) Blood samples were collected by eye bleed from three mice at per time point prior to dosing and from 0.5 to 24 hours postdosing, and the plasma portion was analyzed by using an electrospray ionization, LC/MS/MS method described previously[48]. […] Tri (2-carboxyethyl) phosphine hydrochloride (TCEP) was used as a reducing agent to enhance peptide recovery and was added to all samples at a final concentration of 2 mM. After removing the plasma proteins through adding acetonitrile and centrifugation, the supernatant was transferred to another 96-well plate. Samples were analyzed by LC/MS/MS. Pharmacokinetic parameters were fitted to a two-compartment elimination model, and drug exposure (AUC), elimination half-life (t1⁄2), volume of distribution (Vd) and the clearance (CL) were calculated using WinNonlin Ver.

[4] = mouse, in vivo
Method: as §1

[5] = mouse, in vivo; remark: listed apart in the source
Method: as §2

HSA = biological target: T1, HSA (Homo sapiens, UniProt P02768); test: Phage ELISA of 7-mer peptides for serum albumin binding
T1 construct: purchased Sigma
Method: HSA or MSA were dissolved with 0.1 M NaHCO3 to obtain a solution at 100 μg/ml. The obtained solutions were loaded to each row of wells of enzyme-linked immunosorbent assay (ELISA) multiple-well plate, and the plates were blocked with 1% casein in NaHCO3. Each selected phage clone to be identified was subject to 4-fold serial dilution to allow 10^12 phage particles in the first well and 2.4 × 10^5 phage particles in the twelfth well. Each row of the diluted phages was transferred into the plate coated with HSA or MSA by using a mutichannel pipettor, and the plate was incubated at 25 °C for 1.5 hours. After the microtiter plate was repeatedly washed with TBST, bound phages were detected by incubation with Rabbit anti-M13 phage antibody and HRP-conjugated goat anti-rabbit IgG. ABTS/H2O2 substrate was used to measure the amount of HRP bound and monitor the absorbance at 405 nm.

T1 sequence (P02768 25-609): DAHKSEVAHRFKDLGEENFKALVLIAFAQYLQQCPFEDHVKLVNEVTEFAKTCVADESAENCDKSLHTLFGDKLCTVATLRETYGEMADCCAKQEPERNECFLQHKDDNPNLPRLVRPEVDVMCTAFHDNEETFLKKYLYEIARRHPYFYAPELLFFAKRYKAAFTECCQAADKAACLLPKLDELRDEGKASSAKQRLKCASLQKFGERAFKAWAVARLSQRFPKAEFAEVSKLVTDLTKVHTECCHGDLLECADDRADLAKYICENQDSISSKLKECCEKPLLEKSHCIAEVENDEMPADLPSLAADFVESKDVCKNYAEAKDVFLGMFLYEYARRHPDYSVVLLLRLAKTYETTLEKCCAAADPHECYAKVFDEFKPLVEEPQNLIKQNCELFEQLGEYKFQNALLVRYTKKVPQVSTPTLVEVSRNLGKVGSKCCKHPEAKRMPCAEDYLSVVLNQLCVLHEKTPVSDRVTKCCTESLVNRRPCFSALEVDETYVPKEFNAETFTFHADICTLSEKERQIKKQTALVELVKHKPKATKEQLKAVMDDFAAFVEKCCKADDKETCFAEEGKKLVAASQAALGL

Molecule: C[C@]12CC[C@@H]3c4ccc(OC(=O)N(CCCl)CCCl)cc4CC[C@H]3[C@@H]1CC[C@@H]2O [Estramustine]
ALB [1]: 15.2 ± 0.6 g/L | ALB/GLB [1]: 0.36 ± 0.02 | ALT [1]: 81.5 ± 12.5 U/L | AST [1]: 161 ± 18 U/L | AST/ALT [1]: 1.99 ± 0.09 | CREA [1]: 4 ± 0.3 µM | DBILI [1]: 3.7 ± 0.4 µM | GLB [1]: 42.1 ± 3.7 g/L | IBILI [1]: 7.7 ± 0.2 µM | TBILI [1]: 11.4 ± 0.2 µM | microvessel density (MVD) (Du145 transplanted tumor [2]): 8.6 ± 0.83 | body weight change of treated mice (Du145 transplanted tumor [3]; 40 nM RMP16, estramustine 60 mg/kg): reduced obviously | tumor inhibition rate (Du145 transplanted tumor [3]; 0.1 ml of 40 nM RMP16 or P16, estramustine 60 mg/kg, by average tumor weight versus NaCl group, n = 6): 83.03%

AUC (in vivo): 12300 ng·h/mL | Vd (in vivo): 0.0561 L/kg | clearance (in vivo): 6.75 mL/min/kg | half-life (in vivo): 5.76 min | ALB [4]: 17.25 ± 1.35 g/L | ALB/GLB [4]: 0.45 ± 0.02 | BUN [4]: 10.63 ± 0.35 | CREA [4]: 9.5 ± 0.5 µM | DBILI [4]: 3.85 ± 0.25 µM | GLB [4]: 41.75 ± 1.45 g/L | IBILI [4]: 9.75 ± 0.45 µM | TBILI [4]: 13.6 ± 0.2 µM | half-life [5]: 5.77 min
Molecule: CC[C@H](C)[C@H](NC(=O)[C@H](CCCNC(=N)N)NC(=O)[C@H](CO)NC(=O)[C@@H](NC(=O)[C@@H](NC(=O)[C@H](Cc1c[nH]cn1)NC(=O)[C@@H](NC(=O)[C@H](CC(C)C)NC(=O)[C@@H](N)CC(C)C)[C@@H](C)O)[C@@H](C)O)[C@@H](C)CC)C(=O)N[C@@H](C)C(=O)N[C@H](C(=O)N[C@@H](CO)C(=O)N[C@@H](Cc1ccc(O)cc1)C(=O)N[C@@H](CCC(N)=O)C(=O)N[C@H](C(=O)N[C@@H](CCCCN)C(=O)N[C@H](C(=O)N[C@@H](CC(N)=O)C(=O)N[C@@H](CC(C)C)C(=O)N[C@@H](CC(C)C)C(=O)O)C(C)C)[C@@H](C)O)C(C)C [P16] (H-LLTHTISRIAVSYQTKVNLL-OH)
ALT [4]: 131.5 ± 24.5 U/L | AST [4]: 188.5 ± 29.5 U/L | AST/ALT [4]: 1.45 ± 0.05

Molecule: WQRPSSW
binding affinity to HSA compared with MSA (HSA; phage ELISA, plates coated with HSA or MSA): slightly higher than that of mouse serum albumin | HSA-binding affinity of phage-encoded 7-mer peptide (HSA; sandwich immunoassay (ELISA), 4-fold serial dilution from 10^12 phage particles, absorbance at 405 nm): much higher HSA-binding affinity than HLYWQRP
